Test results from PMC10762177, “Novel betulin derivatives as multidrug reversal agents targeting P-glycoprotein” (Scientific Reports, 2024).
Structures can show the parent of a compound that is named as a salt. Where two headings read alike, the source gives them in different places.

Tests used:
K562/Dox cells = assay: MTT colorimetric assay, cytotoxicity on resistant K562/Dox; assay type: cell-based; details: for IC50: Homo sapiens, K562, 48 h, read-out: IC50 K562/Dox
Procedure: This colorimetric technique is based on the ability of viable cells to capture MTT and reduce it through the mitochondrial enzyme succinic dehydrogenase to its insoluble form, formazan crystals. The target compounds dissolved in DMSO (0.5% v/v as final concentration which was non-toxic to cells) at a maximum concentration of 50 µM were exposed to 5 × 10^4 cells distributed in a 96-well plate and incubated for 48 h. […] After this time, the plate was centrifuged at 2000 rpm for 10 min, and 100 µL of DMSO was added to dissolve the formazan crystals formed. Absorbance (Abs) was read at a wavelength of 595 nm in an iMark microplate reader (Bio-Rad, USA). The percentages of cytotoxicity were determined as compared to DMSO treated control cells, which were considered 100% viable as showing the same level of growth as the untreated cells.

K562 cells = assay: MTT colorimetric assay, cytotoxicity on sensitive K562; assay type: cell-based; details: for IC50: Homo sapiens, MTT, 48 h
Procedure: This colorimetric technique is based on the ability of viable cells to capture MTT and reduce it through the mitochondrial enzyme succinic dehydrogenase to its insoluble form, formazan crystals. […] After this time, the plate was centrifuged at 2000 rpm for 10 min, and 100 µL of DMSO was added to dissolve the formazan crystals formed. Absorbance (Abs) was read at a wavelength of 595 nm in an iMark microplate reader (Bio-Rad, USA).

P-gp = P-gp (Homo sapiens, UniProt P08183); assay: Rhodamine 123 intracellular accumulation assay in K562/Dox (flow cytometry); details: for FAR (fluorescence activity ratio): Rho123, K562/Dox; for MEC (minimum effective concentration): Rho123 accumulation; for MEC (minimum effective concentration) / Rho123 accumulation / anti-P-gp activity: K562/Dox; for Rho123 accumulation / anti-P-gp activity: highest concentrations tested (50 or 6.25 µM)
Chain of P-gp (P08183 whole entry): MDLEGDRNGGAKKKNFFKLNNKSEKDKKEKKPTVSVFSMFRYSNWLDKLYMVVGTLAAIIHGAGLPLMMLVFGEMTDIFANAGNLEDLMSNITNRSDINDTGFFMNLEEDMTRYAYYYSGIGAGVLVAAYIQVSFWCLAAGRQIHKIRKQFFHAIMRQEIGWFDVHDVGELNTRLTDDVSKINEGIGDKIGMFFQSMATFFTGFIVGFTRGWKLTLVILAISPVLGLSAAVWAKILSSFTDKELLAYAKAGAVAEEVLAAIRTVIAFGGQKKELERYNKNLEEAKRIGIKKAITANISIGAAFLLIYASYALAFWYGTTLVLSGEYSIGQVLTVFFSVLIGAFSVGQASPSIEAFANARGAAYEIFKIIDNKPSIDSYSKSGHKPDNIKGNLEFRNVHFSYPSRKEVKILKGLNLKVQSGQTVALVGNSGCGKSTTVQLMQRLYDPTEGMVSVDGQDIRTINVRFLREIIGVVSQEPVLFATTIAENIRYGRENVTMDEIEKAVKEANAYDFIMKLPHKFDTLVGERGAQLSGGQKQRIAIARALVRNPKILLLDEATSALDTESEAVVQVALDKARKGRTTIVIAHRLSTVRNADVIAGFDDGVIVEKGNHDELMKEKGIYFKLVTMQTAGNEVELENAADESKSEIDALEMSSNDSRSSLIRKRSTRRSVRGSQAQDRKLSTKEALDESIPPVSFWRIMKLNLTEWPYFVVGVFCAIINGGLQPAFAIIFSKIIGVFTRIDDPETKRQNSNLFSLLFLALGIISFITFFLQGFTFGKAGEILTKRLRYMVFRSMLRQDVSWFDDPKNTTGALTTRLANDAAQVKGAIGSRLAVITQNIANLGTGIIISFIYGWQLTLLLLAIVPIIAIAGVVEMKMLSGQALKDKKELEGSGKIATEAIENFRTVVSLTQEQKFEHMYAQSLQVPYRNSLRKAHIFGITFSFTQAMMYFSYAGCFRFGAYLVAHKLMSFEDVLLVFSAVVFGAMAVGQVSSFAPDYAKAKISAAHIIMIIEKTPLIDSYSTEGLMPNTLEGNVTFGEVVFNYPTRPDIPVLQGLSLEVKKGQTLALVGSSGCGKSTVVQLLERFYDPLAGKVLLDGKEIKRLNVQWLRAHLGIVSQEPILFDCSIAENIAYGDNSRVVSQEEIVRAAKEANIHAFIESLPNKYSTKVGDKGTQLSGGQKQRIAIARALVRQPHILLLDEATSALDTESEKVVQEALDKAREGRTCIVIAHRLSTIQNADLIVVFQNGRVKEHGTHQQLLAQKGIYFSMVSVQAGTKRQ

Compound	IC50 (K562/Dox cells; MTT, 48 h, K562/Dox)	IC50 (K562 cells; K562, 48 h, K562)	FAR (fluorescence activity ratio) (P-gp; 3.12 µM)	FAR (fluorescence activity ratio) (P-gp; 6.25 µM)	FAR (fluorescence activity ratio) (P-gp; 12.50 µM)	FAR (fluorescence activity ratio) (P-gp; 25 µM)	FAR (fluorescence activity ratio) (P-gp; 50 µM)	MEC (minimum effective concentration) (P-gp)	Rho123 accumulation / anti-P-gp activity (P-gp)	other results
C=C(C)[C@@H]1CC[C@]2(COC(=O)NCc3ccc(OC)c(OC)c3)CC[C@]3(C)[C@H](CC[C@@H]4[C@@]5(C)CC[C@H](O)C(C)(C)[C@@H]5CC[C@]43C)[C@@H]12 [Compound 6c]	> 50 µM	> 50 µM	1.13 ± 0.03	1.23 ± 0.01	1.40 ± 0.06	1.65 ± 0.11	1.97 ± 0.15	3.12 µM		FAR (fluorescence activity ratio) (P-gp; 1.56 µM): 1.00 ± 0.02
COc1ccc(CCN(C)CCCC(C#N)(c2ccc(OC)c(OC)c2)C(C)C)cc1OC (centres unmarked) [Verapamil, Verapamil hydrochloride, reference compound]										inhibition on proliferation / toxicity (K562/Dox cells; 50 μM (highest concentration assayed), K562/Dox): not toxic; IC50 (K562/Dox cells): > 50 µM; inhibition on proliferation / toxicity (K562 cells; 50 μM (highest concentration assayed), K562): not toxic; IC50 (K562 cells; K562): > 50 µM
C=C(C)[C@@H]1CC[C@]2(COC(=O)NCc3cc(OC)c(OC)c(OC)c3)CC[C@]3(C)[C@H](CC[C@@H]4[C@@]5(C)CC[C@H](O)C(C)(C)[C@@H]5CC[C@]43C)[C@@H]12 [Compound 6d]	> 50 µM	> 50 µM	1.64 ± 0.16	1.88 ± 0.17		2.48 ± 0.29	2.80 ± 0.32	0.78 µM		FAR (fluorescence activity ratio) (P-gp; 0.78 µM): 1.16 ± 0.03; FAR (fluorescence activity ratio) (P-gp; 1.56 µM): 1.27 ± 0.08
C=C(C)[C@@H]1CC[C@]2(COC(=O)NCCN3CCN(C(=O)OC(C)(C)C)CC3)CC[C@]3(C)[C@H](CC[C@@H]4[C@@]5(C)CC[C@H](O)C(C)(C)[C@@H]5CC[C@]43C)[C@@H]12 [Compound 6j]	> 50 µM	> 50 µM		1.08 ± 0.04	1.25 ± 0.02	1.68 ± 0.03	2.57 ± 0.11	12.50 µM		
C=C(C)[C@@H]1CC[C@]2(COC(=O)Nc3cc(OC)c(OC)c(OC)c3)CC[C@]3(C)[C@H](CC[C@@H]4[C@@]5(C)CC[C@H](O)C(C)(C)[C@@H]5CC[C@]43C)[C@@H]12 [Compound 6a]	> 50 µM	> 50 µM	1.12 ± 0.005	1.12 ± 0.02	1.20 ± 0.08	1.33 ± 0.11	1.62 ± 0.10	1.56 µM		FAR (fluorescence activity ratio) (P-gp; 0.78 µM): 0.98 ± 0.02; FAR (fluorescence activity ratio) (P-gp; 1.56 µM): 1.17 ± 0.02
C=C(C)[C@@H]1CC[C@]2(COC(=O)c3cc(OC)c(OC)c(OC)c3)CC[C@]3(C)[C@H](CC[C@@H]4[C@@]5(C)CC[C@H](O)C(C)(C)[C@@H]5CC[C@]43C)[C@@H]12 [Compound 3b]	> 50 µM	> 50 µM				0.94 ± 0.03	1.06 ± 0.003	50 µM		
C=C(C)[C@@H]1CC[C@]2(COC(=O)NCc3ccc(N4CCN(C)CC4)cc3)CC[C@]3(C)[C@H](CC[C@@H]4[C@@]5(C)CC[C@H](O)C(C)(C)[C@@H]5CC[C@]43C)[C@@H]12 [Compound 6l]	17.4 ± 0.59 µM	8 ± 1.98 µM	1.08 ± 0.05	1.30 ± 0.04	1.55 ± 0.03			6.25 µM		toxicity (K562/Dox cells; 50 μM, K562/Dox, MTT): more than 55%; toxicity (K562 cells; 50 μM, K562, MTT): more than 55%
C=C(C)[C@@H]1CC[C@]2(COC(=O)/C=C/c3ccc(OC)cc3OC)CC[C@]3(C)[C@H](CC[C@@H]4[C@@]5(C)CC[C@H](O)C(C)(C)[C@@H]5CC[C@]43C)[C@@H]12 [Compound 3c]	> 50 µM	> 50 µM					0.74 ± 0.05	> 50 µM	did not induce statistically significant Rho123 accumulation	
C=C(C)[C@@H]1CC[C@]2(COC(=O)c3ccc(OC)cc3)CC[C@]3(C)[C@H](CC[C@@H]4[C@@]5(C)CC[C@H](O)C(C)(C)[C@@H]5CC[C@]43C)[C@@H]12 [Compound 3a]	> 50 µM	> 50 µM					0.88 ± 0.02	> 50 µM	did not induce statistically significant Rho123 accumulation	
COc1cccc2c1C(=O)c1c(O)c3c(c(O)c1C2=O)C[C@@](O)(C(=O)CO)C[C@@H]3O[C@H]1C[C@H](N)[C@H](O)[C@H](C)O1 [Doxorubicin, Doxorubicin hydrochloride, reference compound]	84.2 ± 7.08 µM	2.61 ± 0.7 µM								fold resistance of K562/Dox versus K562 (K562/Dox cells; ratio of IC50 values, MTT): 32.3
C=C(C)[C@@H]1CC[C@]2(COC(=O)/C=C/c3cc(OC)c(OC)c(OC)c3)CC[C@]3(C)[C@H](CC[C@@H]4[C@@]5(C)CC[C@H](O)C(C)(C)[C@@H]5CC[C@]43C)[C@@H]12 [Compound 3d]	> 50 µM	> 50 µM					1.00 ± 0.06	> 50 µM	did not induce statistically significant Rho123 accumulation	
C=C(C)[C@@H]1CC[C@]2(COC(=O)/C=C/c3cc(OC)c(OC)cc3OC)CC[C@]3(C)[C@H](CC[C@@H]4[C@@]5(C)CC[C@H](O)C(C)(C)[C@@H]5CC[C@]43C)[C@@H]12 [Compound 3e]	> 50 µM	> 50 µM					0.78 ± 0.01	> 50 µM	did not induce statistically significant Rho123 accumulation	
C=C(C)[C@@H]1CC[C@]2(COC(=O)NCc3ccc(OC)cc3)CC[C@]3(C)[C@H](CC[C@@H]4[C@@]5(C)CC[C@H](O)C(C)(C)[C@@H]5CC[C@]43C)[C@@H]12 [Compound 6b]	> 50 µM	> 50 µM				0.90 ± 0.11	1.60 ± 0.07	50 µM		
